Source: patent US20230242887A1, “ONCOLYTIC VIRUS CARRYING E-CADHERIN AND USES THEREOF” (Ohio State Innovation Foundation, priority 2017, published 2023)

Key:
OV-CDH1 = assay: Viral replication inhibition assay (HSV-1 genome copies by real-time PCR); format: cell-based; settings: Human alphaherpesvirus 1; Gli36 cells, MOI of 5, 48 h
Description: (§1) FIGS. 12A-12B illustrate the safety test for OV-CDH1. FIG. 12(A) illustrates that Gli36 cells were infected with OV-Q1 or OV-CDH1 at a MOI of 5. Two hours after infection, the infection media were replaced with fresh media with increasing concentrations of Acyclovir. Forty-eight hours after infection, the cells were harvested for DNA extraction. The HSV-1 genome copy numbers in OV-Q1 and OV-CDH1 infected cells were measured by real-time PCR with primers and a probe against gD. The copy number vs. dose curves were established to evaluate the inhibitory effect of Acyclovir against oHSV replication (n=3). FIG. 12(B) illustrates survival curves of BLAB/c mice treated with wild-type HSV-1 (F strain), OV-Q1 or OV-CDH1 at the dose of 1×10^6 via i.c. or i.v injections.
(§2) OV-Q1 and OV-CDH1 both carry the HSV-1 TK gene, which makes the viruses sensitive to the antiviral acyclovir and its derivatives. […] For evaluating the in vivo safety of OV-CDH1, BALB/c mice were intravenously (i.v.) or i.c. injected with wild-type HSV-1 (F strain), OV-Q1, or OV-CDH1 at the dose of 1×10^6 PFU, which is the maximum dose due to the limited administration volume for i.c. injection. […] Mice treated with OV-Q1 and OV-CDH1 through i.v. or i.c. injections all survived over 4 weeks until they were euthanized and not monitored further (FIG. 12B). […]

OV-Q1 = assay: as above; format: cell-based; settings: Human alphaherpesvirus 1, GLI36, 48 h, read-out: IC50 of inhibition of OV-Q1 replication
Description: as §1, §2

**Q.** With `Nc1nc2c(ncn2COCCO)c(=O)[nH]1` [acyclovir] as the compound, how does the IC50 (OV-CDH1) read?
**A.** 2.67 µM

**Q.** What about the IC50 (OV-Q1) of the same compound?
**A.** 1.67 µM
